Measurements reported in US20230404921A1, “LYOTROPIC LIQUID CRYSTALLINE PHASE PARTICLE” (priority 2020, published 2023).
In brackets after ≈: the same amount, converted by molar mass. Read-outs that look alike come from different tables or passages of the source.

Legend:
[1] = tested on: Pseudomonas aeruginosa (ATCC 2835); assay: MTS based cell viability assay; settings: for inhibition at 0.5 µg/mL: ATCC2835, drug conc 0.5 ug/ml; for inhibition at 2.5 µg/mL: ATCC2835, drug conc 2.5 ug/ml; for inhibition at 5 µg/mL: ATCC2835, drug conc 5 ug/ml; for inhibition at 7.5 µg/mL: ATCC2835, drug conc 7.5 ug/ml; for inhibition at 10 µg/mL: ATCC2835, drug conc 10 ug/ml; for inhibition at 15 µg/mL: ATCC2835, drug conc 15 ug/ml; for inhibition at 20 µg/mL: ATCC2835, drug conc 20 ug/ml; for inhibition at 25 µg/mL: ATCC2835, drug conc 25 ug/ml
[2] = tested on: fluconazole-resistant Cryptococcus neoformans; assay: Antimicrobial assay MIC-50 / MIC-90, 96 well plate; format: cell-based; settings: for MIC50: Cryptococcus neoformans
[3] = tested on: Candida albicans (ATCC10251); assay: Fungal cell viability assay (MTS)
[4] = Pseudomonas aeruginosa, read-out: Percentage inhibition

| SMILES | inhibition at 0.5 µg/mL [1, 4] [%] | inhibition at 2.5 µg/mL [1, 4] [%] | inhibition at 5 µg/mL [1, 4] [%] | inhibition at 7.5 µg/mL [1, 4] [%] | inhibition at 10 µg/mL [1, 4] [%] | inhibition at 15 µg/mL [1, 4] [%] | inhibition at 20 µg/mL [1, 4] [%] | inhibition at 25 µg/mL [1, 4] [%] | also measured |
| --- | --- | --- | --- | --- | --- | --- | --- | --- | --- |
| CC1(C)S[C@@H]2[C@H](NC(=O)[C@H](N)c3ccccc3)C(=O)N2[C@H]1C(=O)O [Ampicillin] | 39 | 39.8 | 41.9 | 42.8 | 46.4 | 62.2 | 69.9 | 72.3 | Percentage inhibition ([1]; drug conc 0.5 ug/ml): 38.64% |
| OC(Cn1cncn1)(Cn1cncn1)c1ccc(F)cc1F [Fluconazole only, Fluconazole] | – | – | – | – | – | – | – | – | MIC50 ([2]; pH 5.17): 12.4 µg/mL (≈ 40.4 µM); MIC50 ([2]; pH 7.08, read-out: MIC-50): 12.2 µg/mL (≈ 39.7 µM); MIC-90 ([2]; pH 5.17): fails to reach MIC-90 |
| C[C@@H]1[C@H](O)[C@@H](C)/C=C/C=C/C=C/C=C/C=C/C=C/C=C/[C@H](O[C@@H]2O[C@H](C)[C@@H](O)[C@H](N)[C@@H]2O)C[C@@H]2O[C@](O)(C[C@@H](O)C[C@@H](O)[C@H](O)CC[C@@H](O)C[C@@H](O)CC(=O)O[C@H]1C)C[C@H](O)[C@H]2C(=O)O [amphotericin, Amphotericin B] | – | – | – | – | – | – | – | – | concentration required to achieve 98% inhibition [3]: 10 µg/mL |
| CO[C@@H]1[C@@H](OC(N)=O)[C@@H](O)[C@H](Oc2ccc3c(O)c(NC(=O)c4ccc(O)c(CC=C(C)C)c4)c(=O)oc3c2C)OC1(C)C [novobiocin, Novobiocin] | – | – | – | – | – | – | – | – | inhibition at 80 µg/mL ([1]; Pseudomonas aeruginosa, ATCC2835, drug conc 80 ug/ml, read-out: Percentage inhibition): 13% |
| CN[C@H](CC(C)C)C(=O)N[C@H]1C(=O)N[C@@H](CC(N)=O)C(=O)N[C@H]2C(=O)N[C@H]3C(=O)N[C@H](C(=O)N[C@H](C(=O)O)c4cc(O)cc(O)c4-c4cc3ccc4O)[C@H](O)c3ccc(c(Cl)c3)Oc3cc2cc(c3O[C@@H]2O[C@H](CO)[C@@H](O)[C@H](O)[C@H]2O[C@H]2C[C@](C)(N)[C@H](O)[C@H](C)O2)Oc2ccc(cc2Cl)[C@H]1O [vancomycin, Vancomycin] | 1.24 | 9.83 | 11.6 | 14.2 | 16.6 | 17.6 | 18 | 18.4 | – |
